Assay: The binding affinity at 5-hydroxytryptamine 1D receptor was determined using [3H]5-CT

Work on `COc1cccc2c1N1CCN(C)C[C@@H]1c1ccccc1C2` [(+)-65-Methoxy-2-methyl-1,2,3,4,9,13b-hexahydro-2,4a-diaza-tribenzo[a,c,e]cycloheptene] yielded a Ki of 1.47 µM.

— BindingDB's records for doi:10.1021/jm010566d (University Center For Pharmacy, 2002)
